Test results taken from US11345669B2, “Urea derivatives and methods of use thereof” (NodThera Limited, priority 2017, dated 2022).

Tested on: IL1-β release upon NLRP3 activation in peripheral blood mononuclear cells (PBMC)
Assay: PBMC IC50 Determination Assay
Assay type: cell-based
Conditions: Homo sapiens; PBMC from buffy coats, LPS 3 h, compound 30 min, then ATP (5 mM) or nigericin (10 μM) for 1 h; IL-1β in media by ELISA; read-out: PBMCs, IC50
Experimental: PBMC IC50 Determination Assay
The compounds of the present disclosure were tested for their inhibitory activity against IL1-β release upon NLRP3 activation in peripheral blood mononuclear cells (PBMC).
Isolated cells were seeded into the wells of a 96-well plate and incubated for 3 h with lipopolysaccharide (LPS). Following medium exchange, the compounds of the present disclosure were added (a single compound per well) and the cells were incubated for 30 min. Next, the cells were stimulated either with ATP (5 mM) or nigericin (10 μM) for 1 h and the cell culture media from the wells were collected for further analysis.
The release of IL-1β into the media was determined by a quantitative detection of IL-1β in 5 the media using an IL-1β enzyme-linked immunosorbent assay (ELISA) Ready-SET-Go!, eBioscience cat. […] Subsequently, plates were blocked with blocking buffer for 1 h at room temperature (rt) and after washing with a buffer (PBS with 0.05% Tween-20) incubated with protein standard and culture media. […] Plates were washed and incubated with HRP-streptavidin for 30 min at rt and washed again. The signal was developed after addition of 3,39,S,59-tetramethylbenzidine-peroxidase (TMB) until color appeared and the reaction was stopped by 2 M H2SO4. A microplate spectrophotometer (BioTek) was used to detect signals with 450 nm. The detection range of IL-1β ELISA was […].

Row | Compound | IC50
1 | COC(=O)C(Cc1cccc(O)c1)NC(=O)Nc1c2c(cc3c1CCC3)CCC2 (stereo not drawn) [Example 2A, Methyl2-{[(1,2,3,5,6,7-hexahydro-s-indacen-4-yl)carbamoyl]amino}-3-(3-hydroxyphenyl)propanoate] | 2.5 µM
2 | CC(C)OC(=O)CNC(=O)Nc1c2c(cc3c1CCC3)CCC2 [Example 2AA, propan-2-yl 2-{[(1,2,3,5,6,7-hexahydro-s-indacen-4-yl)carbamoyl]amino}acetate] | 1.8 µM
3 | CCOC(=O)C(Cc1ccon1)NC(=O)Nc1c2c(cc3c1CCC3)CCC2 (stereo not drawn) [Example 2AB, Ethyl 2-{[(1,2,3,5,6,7-hexahydro-s-indacen-4-yl)carbamoyl]amino}-3-(1,2-oxazol-3-yl)propanoate] | 1.8 µM
4 | CCOC(=O)C(Cc1ncco1)NC(=O)Nc1c2c(cc3c1CCC3)CCC2 (stereo not drawn) [Example 2AC, Ethyl 2-{[(1,2,3,5,6,7-hexahydro-s-indacen-4-yl)carbamoyl]amino}-3-(1,3-oxazol-2-yl)propanoate] | 0.67 µM
5 | CCOC(=O)[C@@H](Cc1cccnc1)NC(=O)Nc1cc2c(cc1C(C)C)CCC2 [Example 2AD, Ethyl (2R)-2-({[6-(propan-2-yl)-2,3-dihydro-1H-inden-5-yl]carbamoyl}amino)-3-(pyridin-3-yl)propanoate] | 2.9 µM
6 | COC(=O)[C@@H](Cc1cncnc1)NC(=O)Nc1c2c(cc3c1CCC3)CCC2 [Example 2AE, Methyl (2R)-2-{[(1,2,3,5,6,7-hexahydro-s-indacen-4-yl)carbamoyl]amino}-3-(pyrimidin-5-yl)propanoate] | 4.5 µM
7 | COC(=O)[C@@H](Cc1cnccn1)NC(=O)Nc1c2c(cc3c1CCC3)CCC2 [Example 2AF, Methyl (2R)-2-{[(1,2,3,5,6,7-hexahydro-s-indacen-4-yl)carbamoyl]amino}-3-(pyrazin-2-yl)propanoate] | 0.46 µM
8 | CCOC(=O)C(Cc1ccnnc1)NC(=O)Nc1c2c(cc3c1CCC3)CCC2 (stereo not drawn) [Example 2AG, Ethyl 2-{[(1,2,3,5,6,7-hexahydro-s-indacen-4-yl)carbamoyl]amino}-3-(pyridazin-4-yl)propanoate] | 6 µM
9 | CCOC(=O)C(Cc1ccncn1)NC(=O)Nc1c2c(cc3c1CCC3)CCC2 (stereo not drawn) [Example 2AI, ethyl 2-{[(1,2,3,5,6,7-hexahydro-s-indacen-4-yl)carbamoyl]amino}-3-(pyrimidin-4-yl)propanoate] | 6.8 µM
10 | O=C(Nc1c2c(cc3c1CCC3)CCC2)NC(Cc1ncccn1)C(=O)O (stereo not drawn) [Example 2AJ, 2-{[(1,2,3,5,6,7-hexahydro-s-indacen-4-yl)carbamoyl]amino}-3-(pyrimidin-2-yl)propanoic acid] | 15 µM
11 | COC(=O)C(Cc1ccccc1O)NC(=O)Nc1c2c(cc3c1CCC3)CCC2 (stereo not drawn) [Example 2B, Methyl2-{[(1,2,3,5,6,7-hexahydro-s-indacen-4-yl)carbamoyl]amino}-3-(2-hydroxyphenyl)propanoate] | 0.06 µM
12 | COC(=O)[C@@H](CC(N)=O)NC(=O)Nc1c2c(cc3c1CCC3)CCC2 [Example 2BB, methyl(2R)-3-carbamoyl-2-{[(1,2,3,5,6,7-hexahydro-s-indacen-4yl)carbamoyl]amino}propanoate] | 32 µM
13 | COC(=O)C(Cc1cccc(C(C)=O)c1)NC(=O)Nc1c2c(cc3c1CCC3)CCC2 (stereo not drawn) [Example 2C, Methyl 3-(3-acetylphenyl)-2-{[(1,2,3,5,6,7-hexahydro-s-indacen-4-yl)carbamoyl]amino}propanoate] | 0.35 µM
14 | COC(=O)[C@@H](Cc1cccs1)NC(=O)Nc1c2c(cc3c1CCC3)CCC2 [Example 2CC, methyl (2R)-2-{[(1,2,3,5,6,7-hexahydro-s-indacen-4-yl)carbamoyl]amino}-3-(thiophen-2-yl)propanoate] | 0.5 µM
15 | COC(=O)[C@@H](Cc1ccc(C#N)cc1)NC(=O)Nc1c2c(cc3c1CCC3)CCC2 [Example 2D, Methyl (2R)-3-(4-cyanophenyl)-2-{[(1,2,3,5,6,7-hexahydro-s-indacen-4-yl)carbamoyl]amino}propanoate] | 1.4 µM
16 | COC(=O)C(Cn1ccnc1)NC(=O)Nc1c2c(cc3c1CCC3)CCC2 (stereo not drawn) [Example 2DD, methyl 2-{[(1,2,3,5,6,7-hexahydro-s-indacen-4-yl)carbamoyl]amino}-3-(1H-imidazol-1-yl)propanoate] | 6.2 µM
17 | COC(=O)[C@@H](Cc1cccc(C#N)c1)NC(=O)Nc1c2c(cc3c1CCC3)CCC2 [Example 2E, Methyl(2R)-3-(3-cyanophenyl)-2-{[(1,2,3,5,6,7-hexahydro-s-indacen-4-yl)carbamoyl]amino}propanoate] | 1.7 µM
18 | COC(=O)CNC(=O)Nc1c2c(cc3c1CCC3)CCC2 [Example 2EE, methyl 2-{[(1,2,3,5,6,7-hexahydro-s-indacen-4-yl)carbamoyl]amino}acetate] | 3.7 µM
19 | COC(=O)[C@@H](Cc1ccccn1)NC(=O)Nc1c2c(cc3c1CCC3)CCC2 [Example 2F, Methyl (2R)-2-{[(1,2,3,5,6,7-hexahydro-s-indacen-4-yl)carbamoyl]amino}-3-(pyridin-2-yl)propanoate] | 4.2 µM
20 | COC(=O)C(Cc1cccc(CO)c1)NC(=O)Nc1c2c(cc3c1CCC3)CCC2 (stereo not drawn) [Example 2G, Methyl2-{[(1,2,3,5,6,7-hexahydro-s-indacen-4-yl)carbamoyl]amino}-3-[3-(hydroxymethyl)phenyl]propanoate] | 1.4 µM
21 | COC(=O)[C@@H](Cc1cccnc1)NC(=O)Nc1c2c(cc3c1CCC3)CCC2 [Example 2H, Methyl (2R)-2-{[(1,2,3,5,6,7-hexahydro-s-indacen-4-yl)carbamoyl]amino}-3-(pyridin-3-yl)propanoate] | 0.88 µM
22 | COC(=O)[C@@H](Cc1cccc(N)c1)NC(=O)Nc1c2c(cc3c1CCC3)CCC2 [Example 2HH, methyl(2R)-3-(3-aminophenyl)-2-{[(1,2,3,5,6,7-hexahydro-s-indacen-4yl)carbamoyl]amino}propanoate] | 4.4 µM
23 | COC(=O)C(Cc1cccc(-c2cncn2C)c1)NC(=O)Nc1c2c(cc3c1CCC3)CCC2 (stereo not drawn) [Example 2I, Methyl 2-{[(1,2,3,5,6,7-hexahydro-s-indacen-4-yl)carbamoyl]amino}-3-[3-(1-methyl-1H-imidazol-5-yl)phenyl]propanoate] | 0.96 µM
24 | COC[C@@H](NC(=O)Nc1c2c(cc3c1CCC3)CCC2)C(=O)OC [Example 2II, methyl(2R)-2-{[(1,2,3,5,6,7-hexahydro-s-indacen-4-yl)carbamoyl]amino}-3-methoxypropanoate] | 5.3 µM
25 | COC(=O)C(Cc1cccc(-c2cc[nH]n2)c1)NC(=O)Nc1c2c(cc3c1CCC3)CCC2 (stereo not drawn) [Example 2J, Methyl 2-{[(1,2,3,5,6,7-hexahydro-s-indacen-4-yl)carbamoyl]amino}-3-[3-(1H-pyrazol-5-yl)phenyl]propanoate] | 0.41 µM
26 | COC(=O)[C@@H](CO)NC(=O)Nc1c2c(cc3c1CCC3)CCC2 [Example 2JJ, methyl(2R)-2-{[(1,2,3,5,6,7-hexahydro-s-indacen-4-yl)carbamoyl]amino}-3-hydroxypropanoate] | 26 µM
27 | COC(=O)[C@@H](Cc1cccc(O)c1)NC(=O)Nc1c2c(cc3c1CCC3)CCC2 [Example 2K, Methyl(2R)-2-{[(1,2,3,5,6,7-hexahydro-s-indacen-4-yl)carbamoyl]amino}-3-(3-hydroxyphenyl)propanoate] | 1.3 µM
